The supplement of paper PMC10307832

What follows are cell lines tested with COC1=CC=C(C=C1)COC2=C(C=C(C=C2)CC3=CN=C(N=C3N)N)OC [GW-2580] + CS(=O)(=O)CCNCc1ccc(-c2ccc3ncnc(Nc4ccc(OCc5cccc(F)c5)c(Cl)c4)c3c2)o1 [Lapatinib] (partner 2 µM) (assay: relative viability (nuclei count vs DMSO), 5 days (fraction); higher = more cells survive). Settings: first compound 0.8 µM.
In short: (§1)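 Nuclei were stained with Hoechst during a one-step fixation (final 0.05% Triton X-100, 1% formaldehyde, 1 ug/ml Hoechst) carried out 5 days after dosing, then counted on 4× images. The cells, lung cancer lines in 1536-well plates, had been dosed by pin tool the day after seeding with one drug alone or a fixed anchor-drug dose plus five library-drug doses (not always all listed) in √10 steps. Relative viability is the nuclei count in treated wells divided by that in vehicle wells, and each value is the median of duplicate plates.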

Cell Line	relative viability
IA-LM	0.862
LOU-NH91	0.811
NCI-H2170	0.258
NCI-H2405	1.16
HOP-62	0.986
HCC-44	1.06
A549	1.04
LU99A	1.14
BEN	0.795
NCI-H1299	0.979
NCI-H1563	0.857

Same assay, conditions: first compound 2.53 µM

Cell Line	relative viability
NCI-H727	0.735
NCI-H1650	0.677
EBC-1	0.214
NCI-H1703	1.2
SW 1573	1.18
NCI-H838	0.789
NCI-H520	0.849
NCI-H2126	0.679
EMC-BAC-2	0.84
NCI-H2085	0.626
Calu-6	1.06
HCC-366	0.977
NCI-H1666	0.847
NCI-H596	0.996
LK-2	0.513
NCI-H2087	1.04

Cell Line	relative viability
SK-MES-1	0.392
H3255	0.234
COR-L23	1.06
COR-L 105	0.336
IA-LM	0.572
LOU-NH91	0.649
NCI-H2170	0.261
NCI-H2405	1.02
HOP-62	0.997
HCC-44	0.923
A549	0.89
LU99A	0.698
BEN	0.481
NCI-H1299	0.959
NCI-H1563	0.831

Same assay, conditions: first compound 8 µM

Cell Line	relative viability
NCI-H727	0.791
NCI-H1650	0.781
EBC-1	0.21
NCI-H1703	0.946
NCI-H1993	0.907
SW 1573	0.856
NCI-H838	0.987
NCI-H520	0.931
NCI-H2126	0.833
EMC-BAC-2	0.901
NCI-H2085	0.713
Calu-6	1.08
HCC-366	1.19
NCI-H1666	0.431
NCI-H596	1.2
LK-2	0.735

Cell Line	relative viability
NCI-H2087	0.991
SK-MES-1	0.474
H3255	0.249
COR-L23	1.06
COR-L 105	0.351
IA-LM	0.876
LOU-NH91	0.789
NCI-H2170	0.274
NCI-H2405	0.912
HOP-62	1.12
HCC-44	1.04
A549	0.869
LU99A	1.01
BEN	0.709
NCI-H1299	0.886
NCI-H1563	0.863

What follows are cell lines tested with COC1=CC=C(C=C1)COC2=C(C=C(C=C2)CC3=CN=C(N=C3N)N)OC [GW-2580] + N=C(N)NC(=N)NCCc1ccccc1 [Phenformin] (partner 250 µM) in the same assay as above. Settings: first compound 0.08 µM.
In short: as §1

Cell Line	relative viability
NCI-H2342	0.57
NCI-H1623	0.566
NCI-H727	0.662
NCI-H1650	0.516
NCI-H1993	0.573
SW 1573	0.334
NCI-H838	0.651
LCLC-103H	0.345
NCI-H520	0.79
NCI-H2126	0.52
EMC-BAC-2	0.558
NCI-H2085	0.756
HCC-366	0.682
NCI-H1666	0.581
NCI-H596	0.92
LK-2	0.37
NCI-H2087	0.526

Cell Line	relative viability
SK-MES-1	0.748
H3255	0.277
COR-L23	0.458
COR-L 105	0.529
LOU-NH91	0.692
ChaGo-K-1	0.594
NCI-H2170	0.442
NCI-H2405	0.401
HOP-62	0.758
HCC-44	0.181
A549	0.19
NCI-H522	0.659
LU99A	0.773
BEN	0.266
SW 900	0.856
NCI-H441	0.997
NCI-H1563	0.69

Same assay, conditions: first compound 0.8 µM

Cell Line	relative viability
NCI-H2342	0.725
NCI-H1623	0.587
NCI-H727	0.574
NCI-H1650	0.461
NCI-H1993	0.461
SW 1573	0.383
NCI-H838	0.59
LCLC-103H	0.328
NCI-H520	0.59
NCI-H2126	0.535
EMC-BAC-2	0.501
NCI-H2085	0.739
HCC-366	0.573
NCI-H1666	0.607
NCI-H596	0.657
LK-2	0.544
NCI-H2087	0.473

Cell Line	relative viability
SK-MES-1	0.608
H3255	0.848
COR-L23	0.53
COR-L 105	0.478
LOU-NH91	0.757
ChaGo-K-1	0.476
NCI-H2170	0.345
NCI-H2405	0.393
HOP-62	0.744
HCC-44	0.153
A549	0.193
NCI-H522	0.638
LU99A	0.823
BEN	0.33
SW 900	0.632
NCI-H441	0.852
NCI-H1563	0.679

Same assay, conditions: first compound 2.53 µM

Cell Line	relative viability
NCI-H2342	0.509
NCI-H1623	0.463
NCI-H727	0.499
NCI-H1650	0.372
NCI-H1993	0.486
SW 1573	0.401
NCI-H838	0.549
LCLC-103H	0.331
NCI-H520	0.592
NCI-H2126	0.543
EMC-BAC-2	0.416
NCI-H2085	0.682
HCC-366	0.595
NCI-H1666	0.604
NCI-H596	0.811
LK-2	0.318
NCI-H2087	0.352

Cell Line	relative viability
SK-MES-1	0.515
H3255	0.702
COR-L23	0.478
COR-L 105	0.508
LOU-NH91	0.611
ChaGo-K-1	0.454
NCI-H2170	0.37
NCI-H2405	0.308
HOP-62	0.637
HCC-44	0.183
A549	0.105
NCI-H522	0.959
LU99A	0.647
BEN	0.255
SW 900	0.472
NCI-H441	0.773
NCI-H1563	0.647

Same assay, conditions: first compound 8 µM

Cell Line	relative viability
NCI-H2342	0.567
NCI-H1623	0.566
NCI-H727	0.652
NCI-H1650	0.536
NCI-H1993	0.518
SW 1573	0.4
NCI-H838	0.648
LCLC-103H	0.376
NCI-H520	0.587
NCI-H2126	0.526
EMC-BAC-2	0.493
NCI-H2085	0.769
HCC-366	0.546
NCI-H1666	0.554
NCI-H596	0.804
LK-2	0.391
NCI-H2087	0.444

Cell Line	relative viability
SK-MES-1	0.528
H3255	0.359
COR-L23	0.463
COR-L 105	0.491
LOU-NH91	0.66
ChaGo-K-1	0.514
NCI-H2170	0.336
NCI-H2405	0.333
HOP-62	0.655
HCC-44	0.253
A549	0.0849
NCI-H522	0.754
LU99A	0.808
BEN	0.317
SW 900	0.633
NCI-H441	1.05
NCI-H1563	0.637

Each cell line was assayed with Cc1cnc(Nc2ccc(OCCN3CCCC3)cc2)nc1Nc1cccc(S(=O)(=O)NC(C)(C)C)c1 [Fedratinib] + N=C(N)NC(=N)NCCc1ccccc1 [Phenformin] (partner 250 µM) in the same assay as above. Settings: first compound 0.1 µM.
In short: as §1

Cell Line	relative viability
NCI-H2342	0.674
NCI-H1623	0.474
NCI-H727	0.76
NCI-H1993	0.508
SW 1573	0.32
NCI-H838	0.468
LCLC-103H	0.32
NCI-H520	0.431
NCI-H2126	0.532
EMC-BAC-2	0.404
NCI-H2085	0.671
HCC-366	0.482
NCI-H1666	0.57
NCI-H596	0.691
LK-2	0.293
NCI-H2087	0.45

Cell Line	relative viability
SK-MES-1	0.511
H3255	0.377
COR-L23	0.438
COR-L 105	0.398
LOU-NH91	0.689
ChaGo-K-1	0.436
NCI-H2170	0.333
NCI-H2405	0.315
HOP-62	0.682
HCC-44	0.123
NCI-H522	0.588
LU99A	0.864
BEN	0.251
SW 900	0.445
NCI-H441	0.812
NCI-H1563	0.658

Same assay, conditions: first compound 0.3162 µM

Cell Line	relative viability
NCI-H2342	0.537
NCI-H1623	0.59
NCI-H727	0.477
NCI-H1650	0.495
NCI-H1993	0.476
SW 1573	0.391
NCI-H838	0.67
LCLC-103H	0.284
NCI-H520	0.564
NCI-H2126	0.569
EMC-BAC-2	0.523
NCI-H2085	0.749
HCC-366	0.673
NCI-H1666	0.575
NCI-H596	0.895
LK-2	0.452
NCI-H2087	0.477

Cell Line	relative viability
SK-MES-1	0.644
H3255	0.362
COR-L23	0.412
COR-L 105	0.429
LOU-NH91	0.899
ChaGo-K-1	0.432
NCI-H2170	0.402
NCI-H2405	0.412
HOP-62	0.601
HCC-44	0.293
A549	0.169
NCI-H522	0.585
LU99A	0.894
BEN	0.231
SW 900	0.672
NCI-H441	0.747
NCI-H1563	0.693

Same assay, conditions: first compound 1 µM

Cell Line	relative viability
NCI-H2342	0.634
NCI-H1623	0.551
NCI-H727	0.352
NCI-H1650	0.234
NCI-H1993	0.493
SW 1573	0.369
NCI-H838	0.414
LCLC-103H	0.363
NCI-H520	0.399
NCI-H2126	0.498
EMC-BAC-2	0.421
NCI-H2085	0.688
HCC-366	0.642
NCI-H1666	0.522
NCI-H596	0.859
LK-2	0.201
NCI-H2087	0.379

Cell Line	relative viability
SK-MES-1	0.532
H3255	0.418
COR-L23	0.442
COR-L 105	0.433
LOU-NH91	0.733
ChaGo-K-1	0.445
NCI-H2170	0.386
NCI-H2405	0.446
HOP-62	0.631
HCC-44	0.163
A549	0.165
NCI-H522	0.661
LU99A	0.755
BEN	0.292
SW 900	0.327
NCI-H441	0.727
NCI-H1563	0.637
